Experimental data reported in US20070128217A1 (priority 2003, published 2007).

Assays:
[1] = system: antibodies in sera from SARS patients (sera 1a, 1b, 2, 6, 37, 62, London, SARS-yellow, SARS-green); format: binding, human; set-up: Binding of serum 6 to linear peptides of protein X1 of SARS-CoV Urbani / Binding of serum 37 to linear peptides of protein X1 of SARS-CoV Urbani / Binding of serum 6 to looped/cyclic peptide (PEPSCAN-ELISA) / Binding of serum 37 to looped/cyclic peptide (PEPSCAN-ELISA) / Binding of serum 37 to looped/cyclic peptides of protein X1 of SARS-CoV Urbani / Binding of serum 6 to linear peptides of protein X2 / Binding of serum 37 to linear peptides of protein X2 / Binding of serum 37 to looped/cyclic peptides of protein X2 of SARS-CoV Urbani / Binding of serum 6 to linear peptides of protein M of SARS-CoV Urbani / Binding of serum 37 to linear peptides of protein M of SARS-CoV Urbani / Binding of serum 6 to looped/cyclic peptides of protein M of SARS-CoV Urbani / Binding of serum 37 to looped/cyclic peptides of protein M of SARS-CoV Urbani / Binding of serum 6 to linear peptides of protein X3 of SARS-CoV Urbani / Binding of serum 37 to linear peptides of protein X3 of SARS-CoV Urbani / Binding of serum 37 to looped/cyclic peptides of protein X3 of SARS-CoV Urbani / Binding of serum 6 to linear peptides of protein X4 of SARS-CoV Urbani / Binding of serum 37 to linear peptides of protein X4 of SARS-CoV Urbani / Binding of serum 37 to looped/cyclic peptides of protein X4 of SARS-CoV Urbani / Binding of serum 6 to linear peptides of protein X5 of SARS-CoV Urbani / Binding of serum 37 to linear peptides of protein X5 of SARS-CoV Urbani / Binding of serum 37 to looped/cyclic peptides of protein X5 of SARS-CoV Urbani / Binding of serum 6 to linear peptides of protein N of SARS-CoV Urbani / Binding of serum 37 to linear peptides of protein N of SARS-CoV Urbani / Binding of serum 6 to linear peptide (PEPSCAN-ELISA) / Binding of serum 1a to looped/cyclic peptides of protein N of SARS-CoV Urbani / Binding of serum 1b to looped/cyclic peptides of protein N of SARS-CoV Urbani / Binding of serum 2 to looped/cyclic peptides of protein N of SARS-CoV Urbani / Binding of serum 6 to looped/cyclic peptides of protein N of SARS-CoV Urbani / Binding of serum 37 to looped/cyclic peptides of protein N of SARS-CoV Urbani / Binding of serum 62 to looped/cyclic peptides of protein N of SARS-CoV Urbani / Binding of serum London to looped/cyclic peptides of protein N of SARS-CoV Urbani / Binding of serum SARS-green to looped/cyclic peptides of protein N of SARS-CoV Urbani: unit not given here
[2] = system: control sera (pooled serum of ten healthy LUMC hospital workers; commercial negative donor pooled serum from the Dutch bloodbank); format: binding, human; set-up: Binding of Control serum LUMC to linear peptides / Binding of Control serum Blood-bank to linear peptides / Binding of Control serum LUMC to looped peptides / Binding of Control Serum Blood-Bank to Looped peptides / Binding of Control serum LUMC to linear peptides of the protein M of SARS-CoV Urbani / Binding of Control serum Blood-bank to linear peptides of the protein M of SARS-CoV Urbani / Binding of Control serum LUMC to looped peptides of the protein M of SARS-CoV Urbani / Binding of Control Serum Blood-Bank to Looped peptides of the protein M of SARS-CoV Urbani: unit not given here
[3] = system: rabbit serum obtained by immunizing a rabbit with the SARS-CoV strain Frankfurt 1; format: binding; set-up: Binding of a rabbit serum to linear peptides / Binding of a rabbit serum to looped peptides / Rabbit serum linear peptides / Rabbit serum looped peptides / Binding of a rabbit serum to linear peptides of protein N of SARS-CoV Urbani (Rabbit serum linear peptides) / Binding of a rabbit serum to looped/cyclic peptides of protein N of SARS-CoV Urbani (Rabbit serum looped peptides): unit not given here

YLYALIYFLQCINAC
0.7: Binding of serum 1a to linear peptides of protein X1 of SARS-CoV Urbani [1]
0.3: Binding of serum 2 to looped/cyclic peptide (PEPSCAN-ELISA) [1] | Binding of serum SARS-yellow to linear peptides of protein X1 of SARS-CoV Urbani [1]
0.4: Binding of serum 1a to looped/cyclic peptide (PEPSCAN-ELISA) [1] | Binding of serum 37 to looped/cyclic peptide (PEPSCAN-ELISA) [1] | Binding of serum 62 to looped/cyclic peptide (PEPSCAN-ELISA) [1] | Binding of serum London to linear peptides of protein X1 of SARS-CoV Urbani [1] | Binding of a rabbit serum to looped peptides [3]
0.2: Binding of serum 1b to looped/cyclic peptide (PEPSCAN-ELISA) [1] | Binding of serum 6 to looped/cyclic peptide (PEPSCAN-ELISA) [1] | Binding of serum London to looped/cyclic peptide (PEPSCAN-ELISA) [1] | Binding of serum SARS-green to linear peptides of protein X1 of SARS-CoV Urbani [1] | Binding of serum SARS-yellow to looped/cyclic peptide (PEPSCAN-ELISA) [1]
0.6: Binding of serum 37 to linear peptides of protein X1 of SARS-CoV Urbani [1] | Binding of Control serum LUMC to linear peptides [2]
0.5: Binding of serum 1b to linear peptides of protein X1 of SARS-CoV Urbani [1] | Binding of serum 2 to linear peptides of protein X1 of SARS-CoV Urbani [1] | Binding of serum 6 to linear peptides of protein X1 of SARS-CoV Urbani [1] | Binding of serum 62 to linear peptides of protein X1 of SARS-CoV Urbani [1] | Binding of Control Serum Blood-Bank to Looped peptides [2] | Binding of Control serum Blood-bank to linear peptides [2] | Binding of Control serum LUMC to looped peptides [2]
0.1: Binding of serum SARS-green to looped/cyclic peptide (PEPSCAN-ELISA) [1] | Binding of a rabbit serum to linear peptides [3]

NKFALTCTSTHFAFA
0.7: Binding of serum 37 to linear peptides of protein X4 of SARS-CoV Urbani [1] | Binding of serum 37 to looped/cyclic peptides of protein X4 of SARS-CoV Urbani [1] | Binding of serum 62 to linear peptides of protein X4 of SARS-CoV Urbani [1] | Binding of serum London to linear peptides of protein X4 of SARS-CoV Urbani [1] | Binding of serum SARS-yellow to looped/cyclic peptides of protein X4 of SARS-CoV Urbani [1]
0.5: Binding of serum 1b to linear peptides of protein X4 of SARS-CoV Urbani [1] | Binding of serum SARS-yellow to linear peptides of protein X4 of SARS-CoV Urbani [1] | Binding of Control serum LUMC to linear peptides [2] | Rabbit serum linear peptides [3] | Rabbit serum looped peptides [3]
0.6: Binding of serum 1a to linear peptides of protein X4 of SARS-CoV Urbani [1] | Binding of serum 6 to looped/cyclic peptides of protein X4 of SARS-CoV Urbani [1] | Binding of Control serum Blood-bank to linear peptides [2]
0.3: Binding of serum 6 to linear peptides of protein X4 of SARS-CoV Urbani [1] | Binding of serum London to looped/cyclic peptides of protein X4 of SARS-CoV Urbani [1]
0.9: Binding of serum 1a to looped/cyclic peptides of protein X4 of SARS-CoV Urbani [1] | Binding of serum 62 to looped/cyclic peptides of protein X4 of SARS-CoV Urbani [1] | Binding of Control Serum Blood-Bank to Looped peptides [2]
0.4: Binding of serum 1b to looped/cyclic peptides of protein X4 of SARS-CoV Urbani [1] | Binding of serum 2 to linear peptides of protein X4 of SARS-CoV Urbani [1] | Binding of serum SARS-green to linear peptides of protein X4 of SARS-CoV Urbani [1]
0.8: Binding of serum 2 to looped/cyclic peptides of protein X4 of SARS-CoV Urbani [1] | Binding of serum SARS-green to looped/cyclic peptides of protein X4 of SARS-CoV Urbani [1] | Binding of Control serum LUMC to looped peptides [2]

RLLACLCKHKKVSTN
0.3: Binding of serum 1a to looped/cyclic peptides of protein X2 of SARS-CoV Urbani [1] | Binding of serum 2 to looped/cyclic peptides of protein X2 of SARS-CoV Urbani [1] | Binding of serum 6 to looped/cyclic peptides of protein X2 of SARS-CoV Urbani [1] | Binding of serum 37 to looped/cyclic peptides of protein X2 of SARS-CoV Urbani [1] | Binding of serum SARS-green to looped/cyclic peptides of protein X2 of SARS-CoV Urbani [1] | Binding of Control Serum Blood-Bank to Looped peptides [2] | Binding of a rabbit serum to linear peptides [3]
0.9: Binding of Control serum Blood-bank to linear peptides [2]
0.7: Binding of Control serum LUMC to linear peptides [2]
0.2: Binding of serum 1b to looped/cyclic peptides of protein X2 of SARS-CoV Urbani [1] | Binding of serum London to looped/cyclic peptides of protein X2 of SARS-CoV Urbani [1]
0.5: Binding of serum 62 to looped/cyclic peptides of protein X2 of SARS-CoV Urbani [1]
recognized in linear form: Recognition of the peptide by sera of SARS-CoV infected individuals, and form (linear, looped/cyclic) in which it is recognized [1]
0.4: Binding of serum SARS-yellow to looped/cyclic peptides of protein X2 of SARS-CoV Urbani [1] | Binding of Control serum LUMC to looped peptides [2] | Binding of a rabbit serum to looped peptides [3]
